Data: US7071173B2, “Antiviral methods employing double esters of 2′, 3′-dideoxy-3′-fluoroguanosine” (Medivir AB, priority 1998, dated 2006)
Read-outs that look alike come from different tables or passages of the source. Blank lines part the entries; values can stand above or below the compound they belong to.

How the values were obtained:
[1] = Rat bioavailability of the indanolic ring hydroxy prodrug, mother compound in plasma by LC-MS; type: in vivo, rats
Method: Bioavailability of the ring indanolic ring hydroxy compound of Example B-1 was assessed in rats by the procedure of Biological Example 5 also using a propylene glycol vehicle, 58 mg/kg (0.047 mmol/kg), but wherein the mother compound N1, N6-di [(1S,2R)-2-hydroxy-2,3-dihydro-1-H-1-indenyl]-(2R, 3R, 5R)-2,5-di(benzyloxy)-3,4-dihydroxyhexanediamide was assayed by LC-MS using SiM (single ion monitoring) with M/Z ion detector 653. Plasma results are presented as μM in the table below: […]

[2] = rat, in vivo, po
Method: At 30, 60, 120, 240 & 360 minutes, 0.2 ml blood were collected, centrifuged and frozen for later analysis. […] Aliquots comprising 40–100 μl of each plasma sample are mixed with an equal volume of acetonitrile (10 seconds, Vibrofex). The sample is centrifuged (2 min, 14000 RPM) and 30 μl of the supernatant is injected into an HPLC system, as follows.

[3] = Rat pharmacokinetics: FLG in serum after oral prodrug, absolute oral bioavailability; conditions: in vivo
Description: (§1) Biomed. Anal. 13, 369–376.

[4] = Bioavailability of FLG as detected by the present inventors; conditions: in vivo; FLG itself
Description: International patent application no. […] The former compound FLG is very active in vitro however the present inventors have detected that its bioavailability is so poor-around 4%-that the in vivo utility of the compound has thus far been limited to intraperitoneally or subcutaneously administered animal models.

[5] = Protein binding in serum samples; type: in vitro ADME
Description: as §1

HIV-1111B TIBO^r = experiment: XTT dye uptake assay utilising MT4 cells; type: cell-based, HIV-1; conditions: Human immunodeficiency virus 1, MT4, read-out: IC50, concentration of metabolite inducing 50% inhibition of viral replication
Description: (§2) In the XTT dye uptake assay of Koshida et al Antimicrob Agents Chemother.

HIV-1111B = experiment: XTT dye uptake assay utilising MT4 cells; type: cell-based, HIV-1; conditions: Human immunodeficiency virus 1, MT4, read-out: IC50, concentration of metabolite inducing 50% inhibition of viral replication
Description: as §2

[6] = FLG itself; **literature value; cited from earlier work
[7] = tested on: duck hepatitis B virus (DHBV); experiment: DHBV model in ducks, serum DHBV DNA by dot blot-hybridisation; type: in vivo
Description: The activity of antivirals on duck hepatitis B virus (DHBV) in ducks is an acknowledged animal model for the validation of in vivo hepatitis B activity in humans. […] The results are depicted in FIGS. […] The ducks were two days old when inoculated with DHBV and 18 days old when treatment was commenced. The metabolite and PBS (controls) were given intraperitoneally for 10 days as twice daily injections, at 8 am and 4 pm. Treatment lasted 33 days and the animals were followed 5 weeks after the end of treatment.
The efficacy of treatment was followed by dot blot-hybridisation of DHBV DNA in serum using a radioactive probe and the amount of DHBV measured as the amount of radioactivity hybridised. FIG. 1 plots the amount of DHBV DNA in serum at different timepoints before, during and after treatment.

HIV-1^2441 AZT^r = experiment: XTT dye uptake assay utilising MT4 cells; type: cell-based; conditions: Human immunodeficiency virus 1, MT4, read-out: IC50, concentration of metabolite inducing 50% inhibition of viral replication
Description: as §2

HIV-2SBL6669 = experiment: XTT dye uptake assay utilising MT4 cells; type: cell-based; conditions: Human immunodeficiency virus 2, read-out: IC50, concentration of metabolite inducing 50% inhibition of viral replication
Description: as §2

HIV-1^29/9 = experiment: XTT dye uptake assay utilising MT4 cells; type: cell-based; conditions: Human immunodeficiency virus 1, read-out: IC50, concentration of metabolite inducing 50% inhibition of viral replication
Description: as §2

[8] = Weight gain of treated DHBV-infected ducks (toxicity); type: in vivo
Description: The activity of antivirals on duck hepatitis B virus (DHBV) in ducks is an acknowledged animal model for the validation of in vivo hepatitis B activity in humans. […] The ducks were two days old when inoculated with DHBV and 18 days old when treatment was commenced. […] Treatment lasted 33 days and the animals were followed 5 weeks after the end of treatment.

SIVSM = experiment: XTT dye uptake assay utilising MT4 cells; type: cell-based, SIV; conditions: Simian immunodeficiency virus, read-out: IC50, concentration of metabolite inducing 50% inhibition of viral replication
Description: as §2

SMILES: CC(C)C(N)C(=O)OC1Cc2ccccc2C1NC(=O)[C@H](OCc1ccccc1)C(O)C(O)[C@@H](OCc1ccccc1)C(=O)N[C@H]1c2ccccc2CC1OC(=O)C(N)C(C)C (some centres unmarked)
bioavailability ([1]; rats, same assay, comparator dosed itself): below the level of detection

SMILES: CCCCCCCCCCCCCCCCCC(=O)OCC(CCCC(=O)OC[C@H]1O[C@@H](n2cnc3c(=O)[nH]c(N)nc32)C[C@@H]1F)COC(=O)[C@@H](N)C(C)C (stereo partly drawn) [Example 12, 2′ 3′-dideoxy-3′-fluoro-5′-O-[5-(L-valyloxymethyl)-6-stearoyloxyhexanoyl]guanosine]
6 h absolute bioavail. % [3]: 29%

SMILES: CCCCCCCCCCCCCCCCCC(=O)OCC(COC(=O)[C@@H](N)C(C)C)CC(=O)OC[C@H]1O[C@@H](n2cnc3c(=O)[nH]c(N)nc32)C[C@@H]1F (some centres unmarked) [Example 13]
6 h absolute bioavail. % [3]: 37%

SMILES: CCCCCCCCCCCCCCCCCC(=O)OC(COC(=O)[C@@H](N)C(C)C)C(=O)OC[C@H]1O[C@@H](n2cnc3c(=O)[nH]c(N)nc32)C[C@@H]1F (some centres unmarked) [Example 25]
6 h absolute bioavail. % [3]: 81.5%

SMILES: Nc1nc2c(ncn2[C@H]2C[C@H](F)[C@@H](CO)O2)c(=O)[nH]1 [FLG, 2′,3′-dideoxy, 3′-fluoroguanosine]
bioavailability [4]: ~4%
protein binding [5]: neglible
IC50 (HIV-1111B TIBO^r): 1 µg/mL
IC50 (HIV-1111B): 1 µg/mL
12 h absolute bioavail. % [6]: 9%**
inhibition of DHBV in vivo ([7]; 0.3 mg/kg/day): considerable inhibition of DHBV in vivo
amount of DHBV DNA in serum during treatment ([7]; 5 mg/kg/day intraperitoneally, twice daily injections): dramatic decrease in the amount of DHBV in serum during the first 10 days of treatment, whereupon for the remainder of treatment the level of DHBV DNA was below the detection limit
DHBV in serum after the finish of treatment ([7]; after the finish of treatment, followed 5 weeks): virus reappeared in the serum
serum DHBV DNA during treatment ([7]; repeat experiments at 30 and 3 mg/kg/day and with congenitally infected ducks): dramatic fall in serum DHBV DNA to under the detection threshold
IC50 (HIV-1^2441 AZT^r): 1 µg/mL
IC50 (HIV-2SBL6669): 2 µg/mL
IC50 (HIV-1^29/9): 0.7 µg/mL
weight of the ducks during treatment ([8]; 5 mg/kg/day, compared with PBS treated controls): increased in the same way as in the control
toxicity judged from growth rate ([8]; ducks, treatment period): clearly non-toxic
IC50 (SIVSM): 1 µg/mL

Next, values leading:

Bioavailability0–6 hours [2]: 34%
SMILES: CCC(=O)c1ccc(F)c([C@@H]2C[C@@H]2NC(=O)Nc2ccc(C#N)cn2)c1OCOC(=O)[C@@H](N)[C@@H](C)CC (relative stereo) [Example P-1, (1S. 2S)-N-{cis-2-[6-fluoro-2-(L-isoleucyloxymethyloxy)-3-propionylphenyl]cyclopropyl}-N′-[2-(5-cyanopyridyl)]urea]

12 h absolute bioavail. % [3]: 67.5%
SMILES: CC(C)[C@H](N)C(=O)OCC(COC(=O)[C@@H](N)C(C)C)CC(=O)OC[C@H]1O[C@@H](n2cnc3c(=O)[nH]c(N)nc32)C[C@@H]1F [Example 26, 2′, 3′-Dideoxy-3′-fluoro-5′-O-[3,3-bis(L-valyloxymethyl)-propionic acid] guanosine]

6 h absolute bioavail. % [3]: 51%
SMILES: CC(C)[C@H](N)C(=O)OCC(COC(=O)[C@@H](N)C(C)C)OC(=O)CCC(=O)OC[C@H]1O[C@@H](n2cnc3c(=O)[nH]c(N)nc32)C[C@@H]1F [Example 29, 2′, 3′-Dideoxy-3′-fluoro-5′-O-3-[1,3-bis-(L-valyloxy]-2-propyloxycarbonylpropanoyl]guanosine]

bioavailability ([1]; rat, in vivo): below level of detection
SMILES: O=C(N[C@H]1c2ccccc2C[C@H]1O)[C@H](OCc1ccccc1)C(O)[C@@H](O)[C@@H](OCc1ccccc1)C(=O)N[C@H]1c2ccccc2C[C@H]1O (stereo partly drawn) [mother compound, N1, N6-di [(1S,2R)-2-hydroxy-2,3-dihydro-1-H-1-indenyl]-(2R, 3R, 5R)-2,5-di(benzyloxy)-3,4-dihydroxyhexanediamide]
